The text below walks through data of patent publication EP1116727B1, “PEPTIDE DERIVATIVE” (Takeda Chemical Industries, Ltd., priority 1998, dated 2000).

This assay has as its target T1, APJ (Homo sapiens, UniProt P35414).
T1 construct: expressed in transfected cells; host or cells: CHO cells (CHO-A10 clone)
T1 sequence (P35414 1-380): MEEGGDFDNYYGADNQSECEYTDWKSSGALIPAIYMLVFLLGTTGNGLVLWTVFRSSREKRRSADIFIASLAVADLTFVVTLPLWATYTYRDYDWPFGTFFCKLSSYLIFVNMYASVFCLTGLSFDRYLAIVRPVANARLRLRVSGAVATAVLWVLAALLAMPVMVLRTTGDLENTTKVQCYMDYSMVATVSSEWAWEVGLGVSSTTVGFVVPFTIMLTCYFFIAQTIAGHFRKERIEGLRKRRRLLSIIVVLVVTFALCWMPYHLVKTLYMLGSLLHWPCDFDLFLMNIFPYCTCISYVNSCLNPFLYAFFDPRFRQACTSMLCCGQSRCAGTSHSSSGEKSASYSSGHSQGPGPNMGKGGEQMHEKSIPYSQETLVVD
Briefly: Suppression activity on forskolin stimulated cAMP production. The assay is classed as cell-based. Particulars: suppression of cAMP production stimulated with 1 µM forskolin; CHO-A10 clone cells; 37°C for 30 minutes; cAMP EIA. The method, then:
Subsequently, after washing with 500 µl of the assay buffer once, 500 µl each of the sample dissolved in the assay buffer added with 1 µM of forskolin were put into each well to incubate at 37°C for 30 minutes. Wells incubated with assay buffer added with no forskolin were prepared to know the basic cAMP production of cells (basal level), and similarly, wells incubated with assay buffer added with forskolin were also prepared to know the maximum cAMP production with stimulation of foskolin (maximum level). After completion of incubation, each well was washed with 500 µl of the assay buffer once, added with 500 µl of the lysis buffer IB included in the cAMP EIA system (Amersham Pharmacia Biotech) and extraction of cAMP was carried out. Following the prescription for the kit, a portion of 100 µl each of the extracts was used to assay. The level of suppression activity on cAMP production was calculated by taking the difference between the maximum level and cAMP in the wells that was added with a sample (amount of the suppression of cAMP production), and by taking it as a percentage relative to the increased production (difference between maximum level and basal level) in cAMP associated with forskolin stimulation, and EC50 was determined based on the dose response curve.

Non-standard residues stand in square brackets, D forms with d. Residues, ends and D or L forms follow the SMILES beside them. No end group written: not given here. Phe(4-Cl) = N[C@@H](Cc1ccc(Cl)cc1)C(=O)O; Cha = N[C@@H](CC1CCCCC1)C(=O)O; Nle = CCCC[C@H](N)C(=O)O

In turn, `CSCC[C@H](NC(=O)[C@@H]1CCCN1C(=O)CNC(=O)[C@H](CCCCN)NC(=O)[C@H](Cc1c[nH]cn1)NC(=O)[C@H](CO)NC(=O)[C@H](CC(C)C)NC(=O)[C@H](CCCNC(=N)N)NC(=O)[C@@H]1CCCN1C(=O)[C@H](CCCNC(=N)N)NC(=O)[C@H](CCC(N)=O)NC(=O)[C@H](CCCNC(=N)N)NC(=O)[C@@H](N)CCCNC(=N)N)C(=O)N1CCC[C@H]1C(=O)N[C@@H](Cc1ccc(Cl)cc1)C(=O)O` [Example 37] came in with an EC50 of 0.14 nM.
In the case of `CC(C)C[C@H](NC(=O)[C@H](CCCNC(=N)N)NC(=O)[C@@H]1CCCN1C(=O)[C@H](CCCNC(=N)N)NC(=O)[C@@H]1CCC(=O)N1)C(=O)N[C@@H](CO)C(=O)N[C@@H](Cc1c[nH]cn1)C(=O)N[C@@H](CCCCN)C(=O)NCC(=O)N1CCC[C@H]1C(=O)N[C@@H](CC1CCCCC1)C(=O)N1CCC[C@H]1C(=O)N[C@@H](Cc1ccccc1)C(=O)O` [Example 35], the response was half-maximal at 0.34 nM (EC50).
The same measure for `CCCC[C@H](NC(=O)[C@@H]1CCCN1C(=O)CNC(=O)[C@H](CCCCN)NC(=O)[C@H](Cc1c[nH]cn1)NC(=O)[C@H](CO)NC(=O)[C@H](CC(C)C)NC(=O)[C@H](CCCNC(=N)N)NC(=O)[C@@H]1CCCN1C(=O)[C@H](CCCNC(=N)N)NC(=O)[C@H](CCC(N)=O)NC(=O)[C@H](CCCNC(=N)N)NC(=O)[C@H](CCCNC(=N)N)NC(=O)[C@H](Cc1ccccc1)NC(=O)[C@H](CCCCN)NC(=O)[C@H](CCCNC(=N)N)NC(=O)[C@H](CCCNC(=N)N)NC(=O)CNC(=O)CNC(=O)[C@H](CCC(N)=O)NC(=O)[C@H](Cc1c[nH]c2ccccc12)NC(=O)[C@@H]1CCCN1C(=O)CNC(=O)[C@@H]1CCCN1C(=O)CNC(=O)[C@H](CC(N)=O)NC(=O)[C@H](CCCNC(=N)N)NC(=O)[C@H](CO)NC(=O)CNC(=O)[C@H](CCCNC(=N)N)NC(=O)[C@@H]1CCCN1C(=O)[C@H](CCC(N)=O)NC(=O)[C@@H](NC(=O)[C@@H](N)CC(C)C)C(C)C)C(=O)N1CCC[C@H]1C(=O)N[C@@H](Cc1ccc(O)cc1)C(=O)O` [Example 2] (H-LVQPRGSRNGPGPWQGGRRKFRRQRPRLSHKGP[Nle]PY-OH): 0.41 nM.
On to `CSCC[C@H](NC(=O)[C@@H]1CCCN1C(=O)CNC(=O)[C@H](CCCCN)NC(=O)[C@H](Cc1c[nH]cn1)NC(=O)[C@H](CO)NC(=O)[C@H](CC(C)C)NC(=O)[C@H](CCCNC(=N)N)NC(=O)[C@@H]1CCCN1C(=O)[C@@H](N)CCCNC(=N)N)C(=O)N[C@@H](CC1CCCCC1)C(=O)O` [Example 34], for which a half-maximal response (EC50) required 0.37 nM.
As for “LVQPRGSRNGPGPWQGGRRKFRRQRPRLSHKGPMPF [reference compound]”, the figure is 0.52 nM; as for `CSCC[C@H](NC(=O)[C@@H]1CCCN1C(=O)CNC(=O)[C@H](CCCCN)NC(=O)[C@H](Cc1c[nH]cn1)NC(=O)[C@H](CO)NC(=O)[C@H](CC(C)C)NC(=O)[C@H](CCCNC(=N)N)NC(=O)[C@@H]1CCCN1C(=O)[C@@H](N)CCCNC(=N)N)C(=O)N1CCC[C@H]1C(=O)N[C@@H](Cc1ccc2ccccc2c1)C(=O)O` [Example 30], 0.28 nM.
As for `CSCC[C@H](NC(=O)[C@@H]1CCCN1C(=O)CNC(=O)[C@H](CCCCN)NC(=O)[C@H](Cc1c[nH]cn1)NC(=O)[C@H](CO)NC(=O)[C@H](CC(C)C)NC(=O)[C@H](CCCNC(=N)N)NC(=O)[C@@H]1CCCN1C(=O)[C@@H](N)CCCNC(=N)N)C(=O)N[C@@H](Cc1ccc(Cl)cc1)C(=O)O` [Example 33], the figure is 0.1 nM.
As for `CSCC[C@H](NC(=O)[C@@H]1CCCN1C(=O)CNC(=O)[C@H](CCCCN)NC(=O)[C@H](Cc1c[nH]cn1)NC(=O)[C@H](CO)NC(=O)[C@H](CC(C)C)NC(=O)[C@H](CCCNC(=N)N)NC(=O)[C@@H]1CCCN1C(=O)[C@@H](N)CCCNC(=N)N)C(=O)N[C@@H](Cc1ccc2ccccc2c1)C(=O)O` [Example 31], the figure is 0.3 nM; as for `CCCC[C@H](NC(=O)[C@H](Cc1c[nH]cn1)NC(=O)[C@H](CO)NC(=O)[C@H](CC(C)C)NC(=O)[C@H](CCCNC(=N)N)NC(=O)[C@@H]1CCCN1C(=O)[C@H](CCCNC(=N)N)NC(=O)[C@H](CCC(N)=O)NC(=O)[C@H](CCCNC(=N)N)NC(=O)[C@@H](N)CCCNC(=N)N)C(=O)NCC(=O)N1CCC[C@H]1C(=O)N[C@@H](CCSC)C(=O)N1CCC[C@H]1C(=O)N[C@@H](Cc1ccc(Cl)cc1)C(=O)O` [Example 38] (H-RRQRPRLSH[Nle]GPMP[Phe(4-Cl)]-OH), 0.35 nM; as for `CC(C)C[C@H](NC(=O)[C@H](CCCNC(=N)N)NC(=O)[C@@H]1CCCN1C(=O)[C@H](CCCNC(=N)N)NC(=O)[C@H](CCC(N)=O)NC(=O)[C@H](CCCNC(=N)N)NC(=O)[C@@H](N)CCCNC(=N)N)C(=O)N[C@@H](CO)C(=O)N[C@@H](Cc1c[nH]cn1)C(=O)N[C@@H](CCCCN)C(=O)NCC(=O)N1CCC[C@H]1C(=O)N[C@@H](CC1CCCCC1)C(=O)O` [Example 36] (H-RRQRPRLSHKGP[Cha]-OH), 0.16 nM.
In turn, `CSCC[C@H](NC(=O)[C@@H]1CCCN1C(=O)CNC(=O)[C@H](CCCCN)NC(=O)[C@H](Cc1c[nH]cn1)NC(=O)[C@H](CO)NC(=O)[C@H](CC(C)C)NC(=O)[C@H](CCCNC(=N)N)NC(=O)[C@@H]1CCCN1C(=O)[C@@H](N)CCCNC(=N)N)C(=O)N1CCC[C@H]1C(=O)N[C@@H](Cc1ccc(Cl)cc1)C(=O)O` [Example 32] gave an EC50 of 0.2 nM.
As for `CCCC[C@H](NC(=O)[C@@H]1CCCN1C(=O)CNC(=O)[C@H](CCCCN)NC(=O)[C@H](Cc1c[nH]cn1)NC(=O)[C@H](CO)NC(=O)[C@H](CC(C)C)NC(=O)[C@H](CCCNC(=N)N)NC(=O)[C@@H]1CCCN1C(=O)[C@H](CCCNC(=N)N)NC(=O)[C@@H]1CCC(=O)N1)C(=O)N1CCC[C@H]1C(=O)N[C@@H](Cc1ccc(O)cc1)C(=O)O` [Example 4], the figure is 0.19 nM.
